According to patent publication US20140228274A1, “Liquid Detergent Composition” (priority 2011, published 2014):

Experiments:
[1] = molecular target: T1, Savinase 16L (subtilisin) (Lederbergia lenta, UniProt P29600); assay: Storage stability in liquid detergent: residual protease activity (hydrolysis of N,N-dimethylcasein at 40° C., pH 8.3); type: biochemical; conditions: for Residual protease activity, 4 weeks at 35° C. (% of initial activity): inhibitor dosage 'yes'
T1 construct: purchased Novozymes Savinase 16L
T1 sequence (P29600 1-269): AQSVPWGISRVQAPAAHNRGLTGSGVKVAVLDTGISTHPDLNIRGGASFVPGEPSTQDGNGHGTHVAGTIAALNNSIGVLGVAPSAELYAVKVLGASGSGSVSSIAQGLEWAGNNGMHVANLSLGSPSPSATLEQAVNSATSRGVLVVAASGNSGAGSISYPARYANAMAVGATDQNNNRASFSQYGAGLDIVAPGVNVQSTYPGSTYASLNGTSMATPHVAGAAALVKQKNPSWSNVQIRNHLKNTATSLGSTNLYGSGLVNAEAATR
Procedure: (§1) General experimental details: Detergents containing Savinase 16L and either X—B^1—B^0—H or X—B^1—NH—CHR—CHOH—SO3Na; or Savinase 16L; are placed in closed glasses at −18° C.; 35° C. and 40° C. Residual activities of protease and lipase are measured after different times using standard analytical methods (protease by hydrolysis of N,N-dimethylcasein at 40° C., pH 8.3 and lipase by hydrolysis of pNp-valerate at 40° C., pH 7.7). The inhibitor and protease may also be added individually to the detergent.
(§2) As an example of liquid detergents with a stabilized subtilisin formulation, the compositions described in Table 1 were made.
(§3) As another example of detergents with a stabilized subtilisin formulation, the compositions described in Table 3 were made.

Lipex 100L (lipase) = assay: Storage stability in liquid detergent: residual lipase activity (hydrolysis of pNp-valerate at 40° C., pH 7.7); type: biochemical
Procedure: as §1, §2, §3

[2] = Detergent A, no Na formate, inhibitor 21 ppm (peptide aldehydes) or 26 ppm (hydrosulfite adduct) in detergent
[3] = Detergent B, 2% Na formate, inhibitor 21 ppm (peptide aldehydes) or 26 ppm (hydrosulfite adduct) in detergent
[4] = Detergent B, 2% Na formate alone, no inhibitor

**Q.** For Cbz-GAY-H, which “Residual protease activity, 2 weeks at 40° C. (% of initial activity)” value [1, 2] is on record?
**A.** 5%

**Q.** And the “Residual protease activity, 2 weeks at 40° C. (% of initial activity)” value [1, 3]?
**A.** 71%

**Q.** What about the “Residual protease activity, 4 weeks at 35° C. (% of initial activity)” value ([1]; Detergent E (12% LAS, pH 8.4), no Na formate) of the same compound?
**A.** 43%

**Q.** What about the “Residual protease activity, 4 weeks at 35° C. (% of initial activity)” value ([1]; Detergent F (12% LAS, pH 8.4), 2% Na formate) of the same compound?
**A.** 88%

**Q.** What about the “Residual lipase activity, 2 weeks at 35° C. (% of initial activity)” value (Lipex 100L (lipase); [2]) of the same compound?
**A.** 16%

**Q.** And the “Residual lipase activity, 2 weeks at 35° C. (% of initial activity)” value (Lipex 100L (lipase); [3])?
**A.** 32%

**Q.** And the “Residual lipase activity, 2 weeks at 35° C. (% of initial activity)” value (Lipex 100L (lipase); Detergent E (12% LAS, pH 8.4), no Na formate, inhibitor dosage 'yes')?
**A.** 14%

**Q.** And the “Residual lipase activity, 2 weeks at 35° C. (% of initial activity)” value (Lipex 100L (lipase); Detergent F (12% LAS, pH 8.4), 2% Na formate, inhibitor dosage 'yes')?
**A.** 27%

**Q.** With Cbz-VAL-H as the compound, how does the “Residual protease activity, 2 weeks at 40° C. (% of initial activity)” value [1, 2] read?
**A.** 2%

**Q.** What about the “Residual protease activity, 2 weeks at 40° C. (% of initial activity)” value [1, 3] of the same compound?
**A.** 49%

**Q.** And the “Residual lipase activity, 2 weeks at 35° C. (% of initial activity)” value (Lipex 100L (lipase); [2])?
**A.** 13%

**Q.** And the “Residual lipase activity, 2 weeks at 35° C. (% of initial activity)” value (Lipex 100L (lipase); [3])?
**A.** 30%

**Q.** Which “Residual protease activity, 2 weeks at 40° C. (% of initial activity)” value [1, 4] does the source give for O=C[O-].[Na+] [Na formate, sodium formate] here?
**A.** 1%

**Q.** And the “Residual lipase activity, 2 weeks at 35° C. (% of initial activity)” value (Lipex 100L (lipase); [4])?
**A.** 3%
